Experimental data reported in ChEMBL document CHEMBL2074397, “Molecular cloning and functional expression of a multispecific organic anion transporter from human kidney” (Am J Physiol, 1999).
Values belong to the compound of their own block, whether it stands above or below them.

How the values were obtained:
[1] = molecular target: T1, Solute carrier family 22 member 6 (SLC22A6) (Homo sapiens, UniProt Q4U2R8); test: TP_TRANSPORTER: inhibition of PAH uptake (PAH: 2 uM, Furosemide: 2000 uM) in Xenopus laevis oocytes; format: functional, cell-based, Oocyte; parameters: scale not given: the % may be the effect or the level left; details: Xenopus laevis oocytes expressing SLC22A6, probe PAH, read-out: Activity
T1 sequence (Q4U2R8 whole entry): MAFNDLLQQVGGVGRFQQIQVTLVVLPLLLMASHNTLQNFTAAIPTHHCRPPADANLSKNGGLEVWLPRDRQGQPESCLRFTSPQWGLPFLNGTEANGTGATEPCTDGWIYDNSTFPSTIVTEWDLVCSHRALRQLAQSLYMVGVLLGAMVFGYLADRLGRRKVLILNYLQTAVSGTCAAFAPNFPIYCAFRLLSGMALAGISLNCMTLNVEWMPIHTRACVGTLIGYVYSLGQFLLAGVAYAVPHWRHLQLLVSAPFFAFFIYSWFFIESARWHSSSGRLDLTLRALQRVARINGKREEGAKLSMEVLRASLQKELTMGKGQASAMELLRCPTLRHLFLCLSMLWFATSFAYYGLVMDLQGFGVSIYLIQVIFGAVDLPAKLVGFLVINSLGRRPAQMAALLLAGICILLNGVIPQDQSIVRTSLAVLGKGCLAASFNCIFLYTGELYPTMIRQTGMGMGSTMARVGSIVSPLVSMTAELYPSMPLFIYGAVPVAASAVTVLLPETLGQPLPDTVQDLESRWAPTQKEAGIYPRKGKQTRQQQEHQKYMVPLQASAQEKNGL

[2] = molecular target: T2, Solute carrier family 22 member 6 (Homo sapiens, UniProt Q4U2R8); test: TP_TRANSPORTER: inhibition of PAH uptake (PAH: 2 uM, Indomethacin: 2000 uM) in Xenopus laevis oocytes; format: functional, cell-based; parameters: scale not given: the % may be the effect or the level left; details: oocyte
T2 sequence (Q4U2R8 whole entry): T1 sequence (Q4U2R8 whole entry)

[3] = molecular target: T2, Solute carrier family 22 member 6; test: TP_TRANSPORTER: inhibition of PAH uptake (PAH: 2 uM, Urate: 2000 uM) in Xenopus laevis oocytes; format: functional, cell-based; details: oocyte

activity at 2000 µM [1]: < 0%
Compound: NS(=O)(=O)c1cc(C(=O)O)c(NCc2ccco2)cc1Cl [FUROSEMIDE]

Activity [2]: < 0%
Compound: COc1ccc2c(c1)c(CC(=O)O)c(C)n2C(=O)c1ccc(Cl)cc1 [INDOMETHACIN]

Compound: O=c1[nH]c(=O)c2[nH]c(=O)[nH]c2[nH]1 [URIC ACID]
Activity [3]: inhibitor [(at a rough estimate) 5 % of control]
